The values that follow come from ChEMBL document CHEMBL1649434, “Regulation of mprF in daptomycin-nonsusceptible Staphylococcus aureus strains” (2009).

Converted amounts (≈) assume the structure as drawn.

Test [1] deals with Staphylococcus aureus. The test can be described thus: Antimicrobial activity against Staphylococcus aureus isolate 629 by Etest. In kind it is functional.
Test [2] has as its system Staphylococcus aureus. Description: Antimicrobial activity against Staphylococcus aureus isolate 701 harboring mprF C884A mutant gene by Etest. The test is classed as functional.
For test [3], the system named is Staphylococcus aureus. Description: Antimicrobial activity against Staphylococcus aureus isolate 703 harboring mprF C884A mutant gene by Etest. The test is classed as functional.
Test [4] deals with Staphylococcus aureus. The test can be described thus: microbe, parasite or virus in culture. Particulars: isolate 616.
Description: Antimicrobial activity against Staphylococcus aureus isolate 616 by Etest

Consider `CCCCCCCCCC(=O)N[C@@H](Cc1c[nH]c2ccccc12)C(=O)N[C@H](CC(N)=O)C(=O)N[C@@H](CC(=O)O)C(=O)N[C@@H]1C(=O)NCC(=O)N[C@@H](CCCN)C(=O)N[C@@H](CC(=O)O)C(=O)N[C@H](C)C(=O)N[C@@H](CC(=O)O)C(=O)NCC(=O)N[C@H](CO)C(=O)N[C@@H]([C@H](C)CC(=O)O)C(=O)N[C@@H](CC(=O)c2ccccc2N)C(=O)O[C@@H]1C`, for which the MIC worked out at 0.75 µg/mL (≈ 0.463 µM) in the test with Staphylococcus aureus [1], 2 µg/mL (≈ 1.23 µM) in the test with Staphylococcus aureus [2], 2 µg/mL (≈ 1.23 µM) in the test with Staphylococcus aureus [3] and 0.5 µg/mL (≈ 0.309 µM) against Staphylococcus aureus [4].
